Patent publication US4296112A, “Cephalosporins” (Mitsui Toatsu Chemicals, Inc., priority 1979, dated 1981)
Like-named read-outs stand apart in the source and are kept apart here.

Key:
[1] = test system: Gram-positive or Gram-negative bacteria; details: background art, in words; cited from earlier work
Pseudomonas aeruginosa = details: background art, in words; cited from earlier work
[2] = test system: Citrobacter freundii (F-34); assay: MIC, agar plate dilution (Referential Example 1, Table 1); type: cell-based; details: HIA medium plate, 37° C., 18 hours, read-out: Minimum growth inhibitory concentration (MIC)
Protocol: (§1) The antibacterial activities of the cephalosporins of this invention were measured using the sodium salts of the compounds obtained in Synthesis Examples 1 and 2. The procedure and the results are shown in Referential Example 1.
(§2) Carbenicillin sodium salt (CB-PC) and cephazoline sodum salt (CEZ) were used as controls.
(§3) The antibacterial activities of the test compounds against various Gram-positive and Gram-negative bacteria were determined in a customary manner by the minimum growth inhibitory concentration method (MIC method).
(§4) The experimental procedure was as follows:
(§5) A commercially available heart infusion agar medium (to be abbreviated HIA medium) was used as an assay medium, and a commercially available trypto-soy bouillon medium (to be abbreviated TSB) was used as a medium for the growth of test bacterial strains.
(§6) The test compound was diluted with the melted HIA medium to 100 μg/ml as a maximum concentration, and then serially diluted double. The dilutions were poured into sterilized Petri dishes respectively and allowed to cool and solidify to prepare plates containing the test compound.
(§7) The test bacterial strain was cultivated at 37° C. for 18 to 24 hours in the TSB medium. The culture broth was diluted to 50 to 500 times with a freshly prepared TSB culture medium, and one platinum loopful of the dilution was inoculated in each of the plates containing the test compound.

Proteus rettgeri (T-2) = assay: as above; type: cell-based; details: Providencia rettgeri; HIA medium plate, 37° C., 18 hours; read-out: Minimum growth inhibitory concentration (MIC)
Protocol: as §1, §2, §3, §4, §5, §6, §7

[3] = test system: Staphylococcus aureus (FDA 209P); assay: as above; type: cell-based; details: FDA209P, read-out: Minimum growth inhibitory concentration (MIC)
Protocol: as §1, §2, §3, §4, §5, §6, §7

Proteus vulgaris (OX-19) = assay: as above; type: cell-based; details: read-out: Minimum growth inhibitory concentration (MIC)
Protocol: as §1, §2, §3, §4, §5, §6, §7

[4] = test system: Klebsiella pneumoniae (Horino); assay: as above; type: cell-based; details: HIA medium plate, 37° C., 18 hours, read-out: Minimum growth inhibitory concentration (MIC)
Protocol: as §1, §2, §3, §4, §5, §6, §7

[5] = test system: Pseudomonas aeruginosa (395); assay: as above; type: cell-based; details: HIA medium plate, 37° C., 18 hours, read-out: Minimum growth inhibitory concentration (MIC)
Protocol: as §1, §2, §3, §4, §5, §6, §7

[6] = test system: Pseudomonas aeruginosa (718); assay: as above; type: cell-based; details: HIA medium plate, 37° C., 18 hours, read-out: Minimum growth inhibitory concentration (MIC)
Protocol: as §1, §2, §3, §4, §5, §6, §7

[7] = test system: Pseudomonas maltophilia (F-6257); assay: as above; type: cell-based; details: Stenotrophomonas maltophilia; HIA medium plate, 37° C., 18 hours; read-out: Minimum growth inhibitory concentration (MIC)
Protocol: as §1, §2, §3, §4, §5, §6, §7

[8] = test system: Pseudomonas aeruginosa (IFO-3901); assay: as above; type: cell-based; details: IFO3901, HIA medium plate, 37° C., 18 hours, read-out: Minimum growth inhibitory concentration (MIC)
Protocol: as §1, §2, §3, §4, §5, §6, §7

Escherichia coli (NIHJ) = assay: as above; type: cell-based; details: HIA medium plate, 37° C., 18 hours, read-out: Minimum growth inhibitory concentration (MIC)
Protocol: as §1, §2, §3, §4, §5, §6, §7

[9] = test system: Klebsiella pneumoniae (B-172); assay: as above; type: cell-based; details: HIA medium plate, 37° C., 18 hours, read-out: Minimum growth inhibitory concentration (MIC)
Protocol: as §1, §2, §3, §4, §5, §6, §7

[10] = test system: Klebsiella pneumonia (F-5089); assay: as above; type: cell-based; details: Klebsiella pneumoniae; HIA medium plate, 37° C., 18 hours; read-out: Minimum growth inhibitory concentration (MIC)
Protocol: as §1, §2, §3, §4, §5, §6, §7

Escherichia coli (26RO3) = assay: as above; type: cell-based; details: HIA medium plate, 37° C., 18 hours, read-out: Minimum growth inhibitory concentration (MIC)
Protocol: as §1, §2, §3, §4, §5, §6, §7

[11] = test system: Salmonella enteritidis (KB-21); assay: as above; type: cell-based; details: Salmonella enterica, 18 h, read-out: Minimum growth inhibitory concentration (MIC)
Protocol: as §1, §2, §3, §4, §5, §6, §7

[12] = test system: Enterobacter aerogenes (IFO 3320); assay: as above; type: cell-based; details: Klebsiella aerogenes, read-out: Minimum growth inhibitory concentration (MIC)
Protocol: as §1, §2, §3, §4, §5, §6, §7

[13] = test system: Serratia marcescens (S-33); assay: as above; type: cell-based; details: HIA medium plate, 37° C., 18 hours, read-out: Minimum growth inhibitory concentration (MIC)
Protocol: as §1, §2, §3, §4, §5, §6, §7

[14] = test system: Pseudomonas aeruginosa (S-1); assay: as above; type: cell-based; details: HIA medium plate, 37° C., 18 hours, read-out: Minimum growth inhibitory concentration (MIC)
Protocol: as §1, §2, §3, §4, §5, §6, §7

Proteus morganii (C-39) = assay: as above; type: cell-based; details: Morganella morganii; HIA medium plate, 37° C., 18 hours; read-out: Minimum growth inhibitory concentration (MIC)
Protocol: as §1, §2, §3, §4, §5, §6, §7

Shigella flexneri (K-A) = assay: as above; type: cell-based; details: HIA medium plate, 37° C., 18 hours, read-out: Minimum growth inhibitory concentration (MIC)
Protocol: as §1, §2, §3, §4, §5, §6, §7

[15] = test system: Klebsiella pneumoniae (ATCC 10031); assay: as above; type: cell-based; details: read-out: Minimum growth inhibitory concentration (MIC)
Protocol: as §1, §2, §3, §4, §5, §6, §7

[16] = test system: Streptococcus faecalis (Hoshi); assay: as above; type: cell-based; details: Enterococcus faecalis; HIA medium plate, 37° C., 18 hours; read-out: Minimum growth inhibitory concentration (MIC)
Protocol: as §1, §2, §3, §4, §5, §6, §7

[17] = test system: Pseudomonas aeruginosa (F1629); assay: as above; type: cell-based; details: HIA medium plate, 37° C., 18 hours, read-out: Minimum growth inhibitory concentration (MIC)
Protocol: as §1, §2, §3, §4, §5, §6, §7

[18] = test system: Escherichia coli (14H114); assay: as above; type: cell-based; details: HIA medium plate, 37° C., 18 hours, read-out: Minimum growth inhibitory concentration (MIC)
Protocol: as §1, §2, §3, §4, §5, §6, §7

[19] = test system: Staphylococcus aureus (Y-8); assay: as above; type: cell-based; details: HIA medium plate, 37° C., 18 hours, read-out: Minimum growth inhibitory concentration (MIC)
Protocol: as §1, §2, §3, §4, §5, §6, §7

[20] = test system: Bacillus cereus (IAM 1792); assay: as above; type: cell-based; details: IAM1792, HIA medium plate, 37° C., 18 hours, read-out: Minimum growth inhibitory concentration (MIC)
Protocol: as §1, §2, §3, §4, §5, §6, §7

[21] = test system: Enterobacter cloacae (D-49); assay: as above; type: cell-based; details: HIA medium plate, 37° C., 18 hours, read-out: Minimum growth inhibitory concentration (MIC)
Protocol: as §1, §2, §3, §4, §5, §6, §7

[22] = test system: Pseudomonas aeruginosa (NCTC 7244); assay: as above; type: cell-based; details: NCTC7244, HIA medium plate, 37° C., 18 hours, read-out: Minimum growth inhibitory concentration (MIC)
Protocol: as §1, §2, §3, §4, §5, §6, §7

[23] = test system: Pseudomonas aeruginosa (ATCC 10145); assay: as above; type: cell-based; details: ATCC10145, HIA medium plate, 37° C., 18 hours, read-out: Minimum growth inhibitory concentration (MIC)
Protocol: as §1, §2, §3, §4, §5, §6, §7

Escherichia coli (K-12) = assay: as above; type: cell-based; details: HIA medium plate, 37° C., 18 hours, read-out: Minimum growth inhibitory concentration (MIC)
Protocol: as §1, §2, §3, §4, §5, §6, §7

[24] = test system: Pseudomonas aeruginosa (NCTC 7244); assay: Minimum bactericidal concentration (Referential Example 2, Table 2); type: cell-based; details: NCTC7244, 18 h, subculture on HIA medium
Protocol: (§8) The compounds obtained in Synthesis Examples 1 to 4 were tested in the following manner.
(§9) A suspension of Pseudomonas aeruginosa (NCTC 7244) cultivated at 37° C. for 18 hours in a heart infusion broth medium (HIB medium) in a final amount of 10^5, 10^6 and 10^7 cells/ml in an HIB medium containing each of the test compounds which was obtained in the same way as in Referential Example 1 except that the maximum concentration of the test compound was 200 μg/ml. The bacterial strain was cultivated at 37° C. for 18 hours, and the turbidity of the culture broth was evaluated with the naked eye. The minimum concentration of the test compound at which no turbidity was noted was defined as MIC.
The growth of the bacterial strain was evaluated.

[25] = test system: Pseudomonas aeruginosa (NCTC 7244); assay: MIC in HIB medium by turbidity (Referential Example 2, Table 2); type: cell-based; details: NCTC7244, 18 h, 37° C.
Protocol: as §8, §9

[26] = HIA medium plate, 37° C., 18 hours

| Structure (SMILES) | effectiveness for infections caused by Pseudomonas aeruginosa (Pseudomonas aeruginosa) | MIC [2] | MIC (Proteus rettgeri (T-2)) | MIC [4] | MIC [5] | MIC [6] | MIC [7] | MIC [8] | MIC (Escherichia coli (NIHJ)) | MIC [9] | MIC [10] | MIC (Escherichia coli (26RO3)) | MIC [11] | MIC [13] | MIC [14] | MIC (Proteus morganii (C-39)) | MIC (Shigella flexneri (K-A)) | MIC [16] | MIC [17] | MIC [18] | also measured |
| --- | --- | --- | --- | --- | --- | --- | --- | --- | --- | --- | --- | --- | --- | --- | --- | --- | --- | --- | --- | --- | --- |
| Cc1nnc(SCC2=C(C(=O)O)N3C(=O)[C@@H](NC(=O)Cn4cnnn4)[C@H]3SC2)s1 [CEZ, sodium 7-[1-(1H)-tetrazoylacetamido]-3-[2-(5-methyl-1,3,4thiadiazoyl)-thiomethyl]-Δ^3-cephem-4-carboxylate] | ineffective for infections caused by Pseudomonas aeruginosa | 50 µg/mL | 12.5 µg/mL | 3.13 µg/mL | > 100 µg/mL | > 100 µg/mL | > 100 µg/mL | > 100 µg/mL | 3.13 µg/mL | 3.13 µg/mL | 3.13 µg/mL | 50 µg/mL | 1.56 µg/mL | > 100 µg/mL | > 100 µg/mL | > 100 µg/mL | 1.56 µg/mL | 25 µg/mL | > 100 µg/mL | 6.25 µg/mL | effectiveness for infections caused by Gram-positive or Gram-negative bacteria [1]: effective as therapeutic agents for infections caused by Gram-positive or Gram-negative bacteria; MIC [3, 26]: 0.2 µg/mL; MIC (Proteus vulgaris (OX-19); 18 h): 1.56 µg/mL; MIC ([12]; IFO3320, HIA medium plate, 37° C., 18 hours): 3.13 µg/mL; MIC ([15]; ATCC10031, 18 h): 1.56 µg/mL; MIC [19]: 0.78 µg/mL; MIC [20]: 100 µg/mL; MIC [21]: > 100 µg/mL; MIC [22]: > 100 µg/mL; MIC [23]: > 100 µg/mL; MIC (Escherichia coli (K-12)): 3.13 µg/mL; MBC ([24]; 10^5 cells/ml inoculated): > 200 µg/mL; MBC ([24]; 10^6 cells/ml inoculated): > 200 µg/mL; MBC ([24]; 10^7 cells/ml inoculated): > 200 µg/mL; MIC ([25]; 10^5 cells/ml inoculated): > 200 µg/mL; MIC ([25]; 10^6 cells/ml inoculated): > 200 µg/mL; MIC ([25]; 10^7 cells/ml inoculated): > 200 µg/mL |
| CC1(C)S[C@@H]2[C@H](NC(=O)C(C(=O)O)c3ccccc3)C(=O)N2[C@H]1C(=O)O (stereo partly drawn) [CB-PC, disodium-α-carboxybenzyl penicillin] | ineffective for Pseudomonas aeruginosa-induced infections of difficultly curable nature | 3.13 µg/mL | 3.13 µg/mL | 100 µg/mL | 25 µg/mL | > 100 µg/mL | 25 µg/mL | 100 µg/mL | 6.25 µg/mL | 25 µg/mL | 50 µg/mL | 3.13 µg/mL | 1.56 µg/mL | 6.25 µg/mL | 25 µg/mL | 6.25 µg/mL | 1.56 µg/mL | 50 µg/mL | > 100 µg/mL | > 100 µg/mL | activity on Pseudomonas aeruginosa (Pseudomonas aeruginosa): low activity on Pseudomonas aeruginosa; MIC ([3]; 18 h): 1.56 µg/mL; MIC (Proteus vulgaris (OX-19); [26]): 6.25 µg/mL; MIC ([12]; IFO3320, 18 h): 1.56 µg/mL; MIC ([15]; ATCC10031, HIA medium plate, 37° C., 18 hours): > 100 µg/mL; MIC [19]: 12.5 µg/mL; MIC [20]: 100 µg/mL; MIC [21]: > 100 µg/mL; MIC [22]: 100 µg/mL; MIC [23]: > 100 µg/mL; MIC (Escherichia coli (K-12)): 6.25 µg/mL; MBC ([24]; 10^5 cells/ml inoculated): 100 µg/mL; MBC ([24]; 10^6 cells/ml inoculated): 100 µg/mL; MBC ([24]; 10^7 cells/ml inoculated): > 200 µg/mL; MIC ([25]; 10^5 cells/ml inoculated): 50 µg/mL; MIC ([25]; 10^6 cells/ml inoculated): 100 µg/mL; MIC ([25]; 10^7 cells/ml inoculated): 200 µg/mL |
